The values below come from PubChem BioAssay (NCI).

Some test systems named below: K-562 leukemia; SK-MEL-5 melanoma; HOP-92 NSCLC; MOLT-4 leukemia; 786-0 renal; NCI/ADR-RES ovarian; UACC-257 melanoma; NCI-H522 lung; A498 renal.
Holding throughout (assay): growth of human tumour cells (NCI), 48 h

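Five concentrations, 48 hours, 96-well plates. GI50 marks 50% less growth. At the TGI there is no net growth.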

Consider `COc1c(C)c(C/C=C(\C)CC/C=C(\C)CCC=C(C)C)c(OC)c(OC)c1OC`, for which the TGI with K-562 leukemia, in the test on SK-MEL-5 melanoma, with HOP-92 NSCLC, in the test on MOLT-4 leukemia, in the test with 786-0 renal and with NCI/ADR-RES ovarian was greater than 100 µM each time. For the same molecule, the TGI with UACC-257 melanoma and in the test on NCI-H522 lung was greater than 100 µM each time.

Turning to `O=C(Nc1cccc(-n2cc(-c3ccncc3)c(-c3ccc(O)c(Cl)c3)n2)c1)c1cccc(C(F)(F)F)c1`, the GI50 is 2410 nM with K-562 leukemia; 2380 nM with SK-MEL-5 melanoma; 434 nM in the test with HOP-92 NSCLC; 2960 nM in the test with MOLT-4 leukemia; 3440 nM with A498 renal; 4.09 µM in the test on NCI/ADR-RES ovarian. Besides, the GI50 was 8.15 µM in the test on UACC-257 melanoma and 2490 nM in the test with NCI-H522 lung. Further, the TGI in the test on K-562 leukemia was greater than 100 µM; in the test on SK-MEL-5 melanoma, 16.2 µM; in the test with HOP-92 NSCLC, 4.11 µM; in the test with MOLT-4 leukemia it was greater than 100 µM; in the test on A498 renal, greater than 100 µM; with NCI/ADR-RES ovarian, greater than 100 µM. In addition, the TGI with UACC-257 melanoma and with NCI-H522 lung was greater than 100 µM in each case.

Regarding `O=[N+]([O-])c1cccnc1-n1cnc2ccccc21`, the TGI with K-562 leukemia, with SK-MEL-5 melanoma, in the test with HOP-92 NSCLC, in the test on MOLT-4 leukemia, in the test on 786-0 renal and with A498 renal was greater than 100 µM throughout. Moreover, the TGI in the test with NCI/ADR-RES ovarian and with UACC-257 melanoma was greater than 100 µM each time.

Regarding `NS(=O)(=O)c1ccc(NNc2c3ccccc3nc3c(C(=O)Nc4ccc(S(=O)(=O)Nc5ncccn5)cc4)cccc23)cc1`, the TGI in the test on K-562 leukemia, in the test with SK-MEL-5 melanoma, in the test on HOP-92 NSCLC, with MOLT-4 leukemia, in the test on 786-0 renal and in the test on NCI/ADR-RES ovarian was greater than 25 µM in each case. Moreover, the TGI with UACC-257 melanoma and with NCI-H522 lung was greater than 25 µM in each case.

Turning to `CCN(CC)c1ccc2cc(-c3nc4ccccc4c(=O)[nH]3)c(=N)oc2c1`, the TGI in the test with K-562 leukemia, in the test with SK-MEL-5 melanoma, in the test with HOP-92 NSCLC, in the test on MOLT-4 leukemia, with 786-0 renal and in the test with NCI/ADR-RES ovarian was greater than 100 µM throughout. The TGI in the test on UACC-257 melanoma and with NCI-H522 lung was greater than 100 µM in each case.

On to `CC1OC2OC3C(OCC(O)C3O)OC(=O)[C@]34CCC(C)(C)CC3C3=CCC5[C@@]6(C)C[C@H](O)[C@H](OC7OC(CO)C(O)C(O)C7OC7OCC(OC(=O)CC(C)(O)CC(=O)OC1C(OC1OC(CO)C(O)C(O)C1O)C2O)C(O)C7O)[C@@](C)(CO)C6CC[C@@]5(C)[C@]3(C)CC4` (some centres undefined), for which the TGI in the test with SK-MEL-5 melanoma was determined as 28.8 µM; in the test with HOP-92 NSCLC, 21.6 µM; in the test on MOLT-4 leukemia, 21.3 µM; in the test on 786-0 renal, 15.5 µM; in the test with NCI/ADR-RES ovarian it was 19.1 µM; with UACC-257 melanoma, 12.7 µM. The same molecule displayed a TGI with NCI-H522 lung of 22.5 µM.

Consider `Cc1cc2cc3c(cc2c(-c2ccc(N)cc2)n1)OCO3`, for which the TGI in the test on K-562 leukemia was 92 µM; with SK-MEL-5 melanoma it was 71.9 µM; in the test on HOP-92 NSCLC, 75.4 µM; in the test with MOLT-4 leukemia it was 39.6 µM; with 786-0 renal it was 57.4 µM; with NCI/ADR-RES ovarian, greater than 100 µM. Further, the TGI in the test with UACC-257 melanoma and with NCI-H522 lung was greater than 100 µM throughout.

Regarding `CC(=O)/C(=C\c1ccc(Cl)c(Cl)c1)C(=O)C(C)CN(C)C` (centres undefined), the TGI in the test on SK-MEL-5 melanoma is 25.3 µM; in the test with HOP-92 NSCLC, 9.55 µM; in the test with MOLT-4 leukemia it was 6.6 µM; in the test on 786-0 renal, 8.96 µM; in the test on A498 renal, 8.16 µM; with NCI/ADR-RES ovarian it was 72.5 µM. Moreover, the TGI with UACC-257 melanoma amounted to 23.7 µM.

For `O=C(NNCc1ccc(Cl)cc1)Nc1cccc2ccccc12`, the TGI in the test with K-562 leukemia, in the test with SK-MEL-5 melanoma, in the test with HOP-92 NSCLC, in the test with MOLT-4 leukemia, with 786-0 renal and in the test on NCI/ADR-RES ovarian was greater than 100 µM each time. For the same molecule, the TGI with UACC-257 melanoma and with NCI-H522 lung was greater than 100 µM each time.

For `CSc1ccc(/C=C2\N=C(c3ccccc3)N(/N=C/c3cc4cc(C)ccc4nc3Cl)C2=O)cc1`, the TGI in the test on K-562 leukemia is 57.2 µM; in the test on SK-MEL-5 melanoma it was 32.9 µM; with HOP-92 NSCLC, 40.1 µM; in the test with MOLT-4 leukemia, 37.2 µM; in the test on 786-0 renal, 35.1 µM; with A498 renal, 43 µM. Further, the TGI worked out at 78.1 µM with NCI/ADR-RES ovarian and 39.8 µM in the test on UACC-257 melanoma.

`CC1CC/C(=C\c2ccc(Cl)cc2)c2nc(N)c(C#N)c(-c3ccc(Cl)cc3)c21` (centres undefined): the TGI with K-562 leukemia is greater than 100 µM; with SK-MEL-5 melanoma, greater than 100 µM; with MOLT-4 leukemia, greater than 100 µM; in the test on 786-0 renal, greater than 100 µM; in the test on A498 renal, 72.4 µM; in the test on NCI/ADR-RES ovarian it was greater than 100 µM. Besides, the TGI in the test on UACC-257 melanoma and with NCI-H522 lung was greater than 100 µM in each case.

On to `COC(=O)CCCC(=O)NC1=C(NCc2ccccc2)C(=O)c2ccccc2C1=O`, for which the TGI with K-562 leukemia is greater than 100 µM; with MOLT-4 leukemia it was greater than 100 µM; in the test with 786-0 renal, greater than 100 µM; in the test with A498 renal, greater than 100 µM; in the test on NCI/ADR-RES ovarian it was greater than 100 µM; in the test with UACC-257 melanoma, 89.7 µM. This molecule displayed a TGI in the test on NCI-H522 lung greater than 100 µM.

In the case of `Cc1ccc(S(=O)(=O)N(CC(O)COc2ccccc2)c2ccc(F)cc2F)cc1` (centres undefined), the TGI in the test with K-562 leukemia was greater than 100 µM; in the test with SK-MEL-5 melanoma it was 27.8 µM; with HOP-92 NSCLC it was 12.4 µM; with MOLT-4 leukemia, 94.2 µM; in the test with 786-0 renal, 31 µM; in the test on A498 renal it was 28.7 µM. Moreover, the TGI with NCI/ADR-RES ovarian and in the test on UACC-257 melanoma was 33.3 µM in each case.

As to `C=CC1CN2CCC1CC2C(O)c1ccnc2ccccc12` (centres undefined), the GI50 with K-562 leukemia is greater than 100000 nM. Moreover, the TGI in the test on K-562 leukemia, with SK-MEL-5 melanoma, in the test with MOLT-4 leukemia, with 786-0 renal, with NCI/ADR-RES ovarian and in the test on UACC-257 melanoma was greater than 100 µM in each case.

Take `Cc1[nH]c(=O)[nH]c(=S)c1C(=O)Nc1cccc2cc3ccccc3cc12`: the TGI with K-562 leukemia, in the test with SK-MEL-5 melanoma, in the test with HOP-92 NSCLC, in the test with MOLT-4 leukemia, with A498 renal and in the test with NCI/ADR-RES ovarian was greater than 100 µM each time.

For the molecule `CO[C@]1(CN2CCN3CCCC[C@@H]3C2)/C=C/C[C@H](C)[C@@H](C)S(=O)(=O)NC(=O)c2ccc3c(c2)N(C[C@@H]2CC[C@H]21)C[C@@]1(CCCc2cc(Cl)ccc21)CO3`, the GI50 is 2280 nM in the test on K-562 leukemia; 1710 nM in the test on SK-MEL-5 melanoma; 1670 nM in the test on HOP-92 NSCLC; 198 nM in the test on MOLT-4 leukemia; 2680 nM in the test on A498 renal; 2.82 µM in the test on UACC-257 melanoma. In addition, in the test with NCI-H522 lung, the GI50 was 370 nM. Also, the TGI in the test with K-562 leukemia was determined as 6.57 µM; in the test on SK-MEL-5 melanoma it was 3.11 µM; in the test with HOP-92 NSCLC, 3.46 µM; with MOLT-4 leukemia, 2.1 µM; in the test with A498 renal, 6.48 µM; in the test on UACC-257 melanoma, 9.34 µM. The same molecule displayed a TGI with NCI-H522 lung of 1.93 µM.

Turning to `CC(=O)Nc1cc(Nc2cc(=O)[nH]c(=O)[nH]2)ccc1C`, the TGI with K-562 leukemia, with SK-MEL-5 melanoma, in the test with HOP-92 NSCLC, in the test with 786-0 renal, with A498 renal and in the test on NCI/ADR-RES ovarian was greater than 100 µM throughout. The same molecule showed a TGI with UACC-257 melanoma greater than 100 µM.

As to `C=C(C)[C@@H]1CC[C@]2(C(=O)O)CC[C@]3(C)[C@H](CCC4[C@@]5(C)CC[C@H](C(=O)/C=C/c6ccc(O)c(O)c6)C(C)(C)[C@@H]5CC[C@]43C)[C@@H]12` (some centres undefined), the TGI was greater than 100 µM with K-562 leukemia; 18.8 µM in the test on SK-MEL-5 melanoma; greater than 100 µM in the test with MOLT-4 leukemia; 30.2 µM in the test on 786-0 renal; greater than 100 µM in the test on NCI/ADR-RES ovarian; 11 µM in the test with UACC-257 melanoma.

On to `Cn1c2ccccc2n2c3ncccc3c(=S)c(C#N)c12`, for which the TGI in the test on K-562 leukemia, in the test on SK-MEL-5 melanoma, in the test with MOLT-4 leukemia, in the test with 786-0 renal, with A498 renal and in the test with NCI/ADR-RES ovarian was greater than 100 µM in each case. Further, the TGI with NCI-H522 lung is greater than 100 µM.

Take `CCOC(=O)c1cn(C)c(=S)n2c1nc1ccccc12`: the TGI with K-562 leukemia, in the test on SK-MEL-5 melanoma, with HOP-92 NSCLC, in the test with MOLT-4 leukemia, in the test with 786-0 renal and in the test on A498 renal was greater than 100 µM in each case. Also, the TGI in the test with NCI/ADR-RES ovarian and in the test on UACC-257 melanoma was greater than 100 µM each time.

For the molecule `COc1ccccc1CNCCCCCCCCCCCCN1C(=O)c2ccc3c4c(ccc(c24)C1=O)C(=O)N(CCCCCCCCCCCCNCc1ccccc1OC)C3=O`, the GI50 in the test on SK-MEL-5 melanoma was 48900 nM; in the test on MOLT-4 leukemia, greater than 50000 nM; in the test with A498 renal, 806 nM; in the test with UACC-257 melanoma it was greater than 5 µM; with NCI-H522 lung it was greater than 50000 nM. The TGI with SK-MEL-5 melanoma is greater than 50 µM; in the test with MOLT-4 leukemia, greater than 50 µM; in the test on A498 renal, 1.8 µM; with UACC-257 melanoma, greater than 5 µM; with NCI-H522 lung, greater than 50 µM.
